Results on four compounds are retold here after patent publication US20090082402A1, “Methods of treating genitourinary disorders using inhibitors of soluble epoxide hydrolase” (Roche Palo Alto LLC, priority 2006, published 2009).

Each structure is given as a SMILES string.

The test system of the test is bladder smooth muscle. The test is described as follows: Contraction studies on isolated rat bladder strips with electrical field stimulation. The test is classed as cell-based, Sprague-Dawley rat. To be noted: isolated bladder tissue. As to the method: Bladder strips from (male/female) Sprague-Dawley (Charles River) rat bladders were mounted in 10 ml tissue baths maintained at 37 C, containing 10 ml of a saline solution consisting of: NaCl (118.5 mM), KCl (4.8 mM), NaHCO3 (25 mM), KH2PO4 (1.2 mM), MgSO4 (1.2 mM), CaCl2 (2.5 mM), and glucose (11.0 mM). The bladder strips were aerated with a mixture of 95% O2 and 5% CO2. The tissues were initially equilibrated for one h with 1 g. resting weight. The control response to 67 mM KCl was then determined. Electrical field stimulation (EFS) was provided through platinum electrodes of 1.14 cm^2 surface area located one cm apart on either side of the tissue. Stimulation to the platinum electrodes was provided by a GRASS Medical Instruments (Quincy, Mass.) S88 Square Pulse Stimulator set to deliver 10 V pulses with a 0.5 ms pulse duration in a pulse train of 10 seconds at either 1, 2, 4, or 8 Hz.
Regarding `CCCCCC1OC1CC=CCC=CCC=CCCCC(=O)O` (stereo not shown) [14,15-EET, 14,15-epoxyeicosatrienoic acid], the “effect on bladder smooth muscle stimulated by low frequency electric fields (relaxation)” value (from here on “effect”) was “relaxes bladder smooth muscle”.

As to `CCCCCC(O)C(O)CC=CCC=CCC=CCCCC(=O)O` (stereo not shown) [14,15-DHET, 14,15-dihydroxyeicosatrienoic acid], the “effect” value is on record as “no effects”.

As for `CCCCC/C=C\CC1OC1C/C=C\C/C=C\CCCC(=O)O` (stereo not shown) [11,12-EET, 11,12-epoxyeicosatrienoic acid], the “effect” value is on record as “no effects”.

Regarding `CCCCC/C=C\C/C=C\CC1OC1C/C=C\CCCC(=O)O` (stereo not shown) [8,9-EET, 8,9-epoxyeicosatrienoic acid], the “effect” value is listed as “no effects”.
